Values of other authors as cited in patent US8486874B2, “Water-soluble processing oil agent” (Idemitsu Kosan Co., Ltd., priority 2009, dated 2013).

Tests used:
[1] = Peroral rat
[2] = Percutaneous rabbit
[3] = compared with dicyclohexylamine, Table 1 data

Row | Structure (SMILES) | LD50 [1] | LDLo [2] | Toxicity relative to dicyclohexylamine [3]
1 | C1CCC(NC2CCCCC2)CC1 [Dicyclohexylamine, reference compound] | LD50 373 mg/kg^1) | – | –
2 | CN(C1CCCCC1)C1CCCCC1 [Methyldicyclohexylamine] | LD50 446 mg/kg^1) | LDLo 2 g/kg^1) | considerably lower
